Experimental data as given in ChEMBL document CHEMBL3593209, “5-Aryl-1H-pyrazole-3-carboxylic acids as selective inhibitors of human carbonic anhydrases IX and XII” (Bioorg Med Chem, 2015).

Columns and labels:
Carbonic anhydrase 1 = Carbonic anhydrase 1 (Homo sapiens, UniProt P00915); assay: Inhibition of human recombinant carbonic anhydrase 1 expressed in Escherichia coli preincubated for 15 mins by stopped flow CO2 hydration method
Carbonic anhydrase 2 = Carbonic anhydrase 2 (Homo sapiens, UniProt P00918); assay: Inhibition of human recombinant carbonic anhydrase 2 expressed in Escherichia coli preincubated for 15 mins by stopped flow CO2 hydration method
Carbonic anhydrase 9 = Carbonic anhydrase 9 (Homo sapiens, UniProt Q16790)
Description: Inhibition of human recombinant carbonic anhydrase 9 expressed in Escherichia coli preincubated for 15 mins by stopped flow CO2 hydration method

Carbonic anhydrase 12 = Carbonic anhydrase 12 (Homo sapiens, UniProt O43570); assay: Inhibition of human recombinant carbonic anhydrase 12 expressed in Escherichia coli preincubated for 15 mins by stopped flow CO2 hydration method
[1] = Dissociation constant, acidic pKa of the compound by spectrophotometric analysis

Chain of Carbonic anhydrase 1 (P00915 whole entry): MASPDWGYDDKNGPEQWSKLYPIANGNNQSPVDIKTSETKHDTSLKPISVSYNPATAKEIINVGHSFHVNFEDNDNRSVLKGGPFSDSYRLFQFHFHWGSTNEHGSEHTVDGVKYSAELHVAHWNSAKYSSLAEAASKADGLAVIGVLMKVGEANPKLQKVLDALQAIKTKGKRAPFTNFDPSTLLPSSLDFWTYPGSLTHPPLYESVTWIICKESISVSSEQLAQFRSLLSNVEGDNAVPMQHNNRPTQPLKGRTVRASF
Chain of Carbonic anhydrase 12 (O43570 whole entry): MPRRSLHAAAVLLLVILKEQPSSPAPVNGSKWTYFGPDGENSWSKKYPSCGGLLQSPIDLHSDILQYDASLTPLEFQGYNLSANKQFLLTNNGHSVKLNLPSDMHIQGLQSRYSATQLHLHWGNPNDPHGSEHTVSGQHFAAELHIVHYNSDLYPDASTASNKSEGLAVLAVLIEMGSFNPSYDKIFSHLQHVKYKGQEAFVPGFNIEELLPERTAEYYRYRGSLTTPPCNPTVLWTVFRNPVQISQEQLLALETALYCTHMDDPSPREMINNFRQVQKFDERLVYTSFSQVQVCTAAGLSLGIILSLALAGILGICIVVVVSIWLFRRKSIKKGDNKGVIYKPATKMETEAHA

| SMILES | Ki (Carbonic anhydrase 1) [µM] | Ki (Carbonic anhydrase 2) [µM] | Ki (Carbonic anhydrase 9) [µM] | Ki (Carbonic anhydrase 12) [µM] | pKa [1] |
| --- | --- | --- | --- | --- | --- |
| O=C(O)c1cc(-c2cccc(Br)c2)[nH]n1 | > 50 | > 50 | 23.5 | > 50 | – |
| CCCCc1ccc(-c2cc(C(=O)O)n[nH]2)cc1 | > 50 | > 50 | 39 | – | – |
| O=C(O)c1cc(-c2ccc(N3CCCC3)cc2)[nH]n1 | > 50 | > 50 | > 50 | – | – |
| CC(C)(C)c1ccc(-c2cc(C(=O)O)n[nH]2)cc1 | > 50 | > 50 | 5 | – | – |
| COc1ccccc1-c1cc(C(=O)O)n[nH]1 | > 50 | > 50 | > 50 | – | – |
| CC(C)c1ccc(-c2cc(C(=O)O)[nH]n2)cc1 | > 50 | > 50 | > 50 | > 50 | – |
| O=C(O)c1cc(-c2ccc3ccccc3c2)[nH]n1 | > 50 | > 50 | > 50 | – | – |
| COc1cc(C)c(-c2cc(C(=O)O)n[nH]2)cc1C | > 50 | > 50 | 22.5 | > 50 | – |
| CCc1cc(CC)c(-c2cc(C(=O)O)n[nH]2)c(CC)c1 | > 50 | > 50 | > 50 | > 50 | – |
| Cc1cc(C)c(-c2cc(C(=O)O)n[nH]2)cc1C | > 50 | > 50 | 23.5 | > 50 | – |
| O=C(O)c1cc(-c2ccc(Cl)cc2)n[nH]1 | > 50 | > 50 | > 50 | 50 | – |
| Cc1ccc(-c2cc(C(=O)O)[nH]n2)cc1C | > 50 | > 50 | 48 | > 50 | – |
| CCc1ccc(-c2cc(C(=O)O)[nH]n2)cc1 | > 50 | > 50 | 42 | 4.5 | – |
| O=C(O)c1cc(-c2ccc(F)cc2)n[nH]1 | > 50 | > 50 | > 50 | 38.5 | – |
| CC(C)c1cc(C(C)C)c(-c2cc(C(=O)O)n[nH]2)c(C(C)C)c1 | > 50 | > 50 | 39 | – | – |
| O=C(O)c1cc(-c2ccc3c(c2)CCCC3)[nH]n1 | > 50 | > 50 | > 50 | – | – |

Further lines, results first:

| Ki (Carbonic anhydrase 1) [µM] | Ki (Carbonic anhydrase 2) [µM] | Ki (Carbonic anhydrase 9) [µM] | Ki (Carbonic anhydrase 12) [µM] | pKa [1] | SMILES |
| --- | --- | --- | --- | --- | --- |
| > 50 | > 50 | > 50 | > 50 | – | Cc1ccc(-c2cc(C(=O)O)[nH]n2)cc1 |
| > 50 | > 50 | 45 | > 50 | – | Cc1ccc(-c2cc(C(=O)O)[nH]n2)c(C)c1 |
| > 50 | > 50 | 5 | > 50 | – | Cc1cc(C)c(C)c(-c2cc(C(=O)O)n[nH]2)c1C |
| > 50 | > 50 | 49.5 | > 50 | 3.31 | COc1ccc(-c2cc(C(=O)O)n[nH]2)cc1 |
| > 50 | > 50 | > 50 | – | – | O=C(O)c1cc(-c2ccc(-c3ccccc3)cc2)[nH]n1 |
| > 50 | > 50 | 16 | > 50 | – | CC(C)c1ccc(-c2cc(C(=O)O)n[nH]2)c(C(C)C)c1 |
| > 50 | > 50 | > 50 | 41 | – | O=C(O)c1cc(-c2ccc(O)cc2)n[nH]1 |
